Source: patent publication US4006225A, “Method of using reduction products of everninomicins as antibacterial agents and pharmaceutical compositions useful therefor” (Schering Corporation, priority 1975, dated 1977)
In brackets after ≈: the same amount, converted by molar mass. Several values for one entry are separate records, joined by “and”; a condition that tells them apart may be missing. Equal values may be shown once. Entries after “also recorded” stand apart in the source; their conditions may differ. Where a name gives a salt, the structure may show the parent alone. Read-outs that look alike come from different tables or passages of the source.

Legend:
[1] = acute toxicity (LD50) in mice; settings: mouse, in vivo; for LD50 in mice I.P. (mg/kg): ip; for LD50 in mice I.V. (mg/kg): iv; for LD50 in mice S.C. (mg/kg): sc
Protocol: The acute toxicity (LD50) of the antibacterial substances in either aqueous suspensions or aqueous solutions is measured in milligrams per kilogram in standard manner using male CF-1 mice weighing 20 grams.

[2] = peak serum levels in rats; assay type: in vivo; settings: rat, 25 mg/kg S.C.
Protocol: (§1) In determining peak serum levels, the animal tested (e.g. dog or rat) is given a single dose of 10 or 25 mg/kg of everninomicin D or derivative thereof of this invention, blood samples are taken periodically, and the serum thereof is assayed for anti-bacterial activity by an agar-diffusion-assay as described by Weinstein et al., Antimicrobial Agents and Chemotherapy, p 24 (1964).

[3] = pKa of purified everninomicin D; assay type: physicochemical
[4] = test system: Staphylococcus and Streptococcus; assay: in vitro susceptibility of gram-positive microorganisms, standard tube dilution (MIC); assay type: cell-based; settings: for MIC: Staphylococcus and Streptococcus, 24 hours at 37° C, Penassay broth; for antibacterial activity compared with everninomicin D: gram-positive bacteria
Protocol: The comparative in vitro activities of nitrosoeverninomicin D and the sodium salt thereof, hydroxylaminoeverninomicin D and the sodium salt and N-methylglucamine salt thereof, hydroxylaminoeverninomicin D benzyl nitrone N-methylglucamine salt, hydroxylaminoeverninomicin B and hydroxylaminoeverninomicin C are set forth in Table 1 below. The susceptibility of the test gram-positive microorganisms to the antibacterials was determined by standard tube dilution methods. In each instance 10^^-5 dilutions of 24-hour broth cultures were employed as inoculum with the endpoints being taken after incubation for 24 hours at 37° C in a Difco […] broth medium (Difco Labs., Detroit, Michigan). In the tables, the activity (or assay value) of each respective antibacterial agent is expressed in units per milliliter or micrograms per milliliter.

[5] = peak serum levels in dogs; assay type: in vivo; settings: dog, 10 mg/kg I.M.
Protocol: as §1

[6] = test system: N.gonorrhea and N.meningitidis; assay: in vitro susceptibility of gram-negative microorganisms, plate dilution in Thayer-Martin medium (MIC); assay type: cell-based, Neisseria gonorrhea and Neisseria meningitidis; settings: for MIC: N.gonorrhea and N.meningitidis, Thayer-Martin medium
Protocol: The susceptibility of the gram-negative microorganisms to the antibacterials was determined by plate dilution methods in Thayer-Martin medium by the known Thayer-Martin procedure.

[7] = absorption, serum levels and excretion after injection compared with everninomicin D; assay type: in vivo; settings: by injection
Protocol: as §1

[8] = test system: S. aureus (A.T.C.C. 6538p); assay: microbiological assay (bioassay), cup-type agar diffusion; assay type: cell-based
Protocol: The microbiological assay (also called the bioassay) is effected microbiologically by a standard cup-type agar diffusion assay technique using S. aureus (A.T.C.C. 6538p) as test organism. A reference curve is prepared by plotting the dosage-response of the antibacterial agent in ethanol diluted by phosphate buffer at pH7 upon a medium of the following composition which has been inoculated with the test organism (i.e. S. aureus): A suspension of the assay organism (S. aureus A.T.C.C. 6538p) is standardized to produce 20% transmission at 660 mμ in a colorimeter. The potency of the sample is determined from the reference curve and expressed in terms of units per milligram (a unit being that amount of test substance required to produce a 15 mm zone of inhibition with a steel cylinder of 6.5 mm outside diameter).

COCC1OC(OC2OCC3OC4(OCC(O)(C(C)OC)C5OCOC54)OC3C2OC)C(OC)C(O)C1OC1OC(C)C(OC)C(OC2CC3(C)OC4(CC(O)C(OC5CC(OC6CC(C)([N+](=O)[O-])C(OC)C(C)O6)C(OC(=O)c6c(C)c(Cl)c(O)c(Cl)c6OC)C(C)O5)C(C)O4)OC3C(C)O2)C1O (stereo not drawn) [Everninomicin D, everninomicin D, reference compound]
LD50 in mice I.P. (mg/kg) [1]: > 3800
LD50 in mice I.V. (mg/kg) [1]: 125
LD50 in mice Oral (mg/kg) [1]: > 3800
LD50 in mice S.C. (mg/kg) [1]: > 3800
Peak serum levels in rats [2]: 10 to 12 µg/mL
pKa [3]: 7.2
MIC ([4]; 24 h, read-out: MIC): 0.03 to 0.3 µg/mL (≈ 0.0195 to 0.195 µM)
Peak serum levels in dogs [5]: 2 to 3 µg/mL

COCC1OC(OC2OCC3OC4(OCC(O)(C(C)OC)C5OCOC54)OC3C2OC)C(OC)C(O)C1OC1OC(C)C(OC)C(OC2OC(C)C3OC4(CC(O)C(OC5CC(OC6CC(C)(NO)C(OC)C(C)O6)C(OC(=O)c6c(C)c(Cl)c(O)c(Cl)c6OC)C(C)O5)C(C)O4)OC3(C)C2O)C1O (stereo not drawn) [Hydroxylaminoeverninomicin B, hydroxylaminoeverninomicin B]
MIC ([4]; 24 h, read-out: MIC): 0.1 to 1 µg/mL (≈ 0.065 to 0.65 µM)

COCC1OC(OC2OCC3OC4(OCC(O)C5OCOC54)OC3C2OC)C(OC)C(O)C1OC1OC(C)C(OC)C(OC2CC3(C)OC4(CC(O)C(OC5CC(OC6CC(C)(NO)C(OC)C(C)O6)C(OC(=O)c6c(C)c(Cl)c(O)c(Cl)c6OC)C(C)O5)C(C)O4)OC3C(C)O2)C1O (stereo not drawn) [Hydroxylaminoeverninomicin C, hydroxylaminoeverninomicin C]
MIC ([4]; 24 h, read-out: MIC): 0.1 to 0.8 µg/mL (≈ 0.0682 to 0.546 µM)
Cmax ([5]; serum, im): 15000 ng/mL

COCC1OC(OC2OCC3OC4(OCC(O)(C(C)OC)C5OCOC54)OC3C2OC)C(OC)C(O)C1OC1OC(C)C(OC)C(OC2CC3(C)OC4(CC(O)C(OC5CC(OC6CC(C)(NO)C(OC)C(C)O6)C(OC(=O)c6c(C)c(Cl)c(O)c(Cl)c6OC)C(C)O5)C(C)O4)OC3C(C)O2)C1O (stereo not drawn) [Hydroxylaminoeverninomicin D N-methylglucamine salt]
LD50 in mice I.P. (mg/kg) [1]: 500
LD50 in mice I.V. (mg/kg) [1]: 30
LD50 in mice Oral (mg/kg) [1]: > 2000
LD50 in mice S.C. (mg/kg) [1]: 500
Peak serum levels in rats [2]: 30 to 40 µg/mL
MIC [4]: 0.08 to 0.8 µg/mL
Peak serum levels in dogs [5]: 20 to 30 µg/mL
MIC [6]: 0.2 to 1.0 µg/mL

COCC1OC(OC2OCC3OC4(OCC(O)(C(C)OC)C5OCOC54)OC3C2OC)C(OC)C(O)C1OC1OC(C)C(OC)C(OC2CC3(C)OC4(CC(O)C(OC5CC(OC6CC(C)(NO)C(OC)C(C)O6)C(OC(=O)c6c(C)c(Cl)c(O)c(Cl)c6OC)C(C)O5)C(C)O4)OC3C(C)O2)C1O (stereo not drawn) [Hydroxylaminoeverninomicin D sodium salt, hydroxylaminoeverninomicin D sodium salt]
LD50 in mice I.P. (mg/kg) [1]: 500
LD50 in mice I.V. (mg/kg) [1]: 30
LD50 in mice Oral (mg/kg) [1]: > 2000
LD50 in mice S.C. (mg/kg) [1]: 500
Peak serum levels in rats [2]: 30 to 40 µg/mL
MIC ([4]; sodium salt): 0.08 to 0.8 µg/mL
antibacterial activity compared with everninomicin D ([4]; sodium salt): antibacterial activity comparable to that of the everninomicin D precursor; also recorded: comparable antibacterial activity against gram-positive bacteria
absorption compared with everninomicin D [7]: more rapidly absorbed
excretion compared with everninomicin D [7]: more rapidly excreted than everninomicin D
serum levels compared with everninomicin D [7]: higher serum levels
Peak serum levels in dogs [5]: 20 to 30 µg/mL
MIC ([6]; Neisseria meningitidis, read-out: MIC): 0.2 to 1 µg/mL

COCC1OC(OC2OCC3OC4(OCC(O)(C(C)OC)C5OCOC54)OC3C2OC)C(OC)C(O)C1OC1OC(C)C(OC)C(OC2CC3(C)OC4(CC(O)C(OC5CC(OC6CC(C)(NO)C(OC)C(C)O6)C(OC(=O)c6c(C)c(Cl)c(O)c(Cl)c6OC)C(C)O5)C(C)O4)OC3C(C)O2)C1O (stereo not drawn) [Hydroxylaminoeverninomicin D, hydroxylaminoeverninomicin D]
MIC [4]: 0.3 to 0.8 µg/mL
antibacterial activity compared with everninomicin D [4]: antibacterial activity comparable to that of everninomicin D; also recorded: comparable antibacterial activity against gram-positive bacteria
absorption compared with everninomicin D [7]: more rapidly absorbed
activity against certain gram-negative bacteria ([6]; certain gram-negative bacteria, in words): certain gram-negative bacteria are also susceptible

COCC1OC(OC2OCC3OC4(OCC(O)(C(C)OC)C5OCOC54)OC3C2OC)C(OC)C(O)C1OC1OC(C)C(OC)C(OC2CC3(C)OC4(CC(O)C(OC5CC(OC6CC(C)(N=O)C(OC)C(C)O6)C(OC(=O)c6c(C)c(Cl)c(O)c(Cl)c6OC)C(C)O5)C(C)O4)OC3C(C)O2)C1O (stereo not drawn) [Nitrosoeverninomicin D sodium salt, nitrosoeverninomicin D sodium salt]
MIC ([4]; sodium salt): 0.08 to 3 µg/mL

COCC1OC(OC2OCC3OC4(OCC(O)(C(C)OC)C5OCOC54)OC3C2OC)C(OC)C(O)C1OC1OC(C)C(OC)C(OC2CC3(C)OC4(CC(O)C(OC5CC(OC6CC(C)(N=O)C(OC)C(C)O6)C(OC(=O)c6c(C)c(Cl)c(O)c(Cl)c6OC)C(C)O5)C(C)O4)OC3C(C)O2)C1O (stereo not drawn) [Nitrosoeverninomicin D, nitrosoeverninomicin D]
Peak serum levels in rats [2]: 10 to 11 µg/mL
Bioassay [8]: 1460 µg/mL
MIC ([4]; 24 h, read-out: MIC): 0.08 to 0.8 µg/mL (≈ 0.0526 to 0.526 µM)
Peak serum levels in dogs [5]: 6 µg/mL

COCC1OC(OC2OCC3OC4(OCC(O)(C(C)OC)C5OCOC54)OC3C2OC)C(OC)C(O)C1OC1OC(C)C(OC)C(OC2CC3(C)OC4(CC(O)C(OC5CC(OC6CC(C)([N+]([O-])=Cc7ccccc7)C(OC)C(C)O6)C(OC(=O)c6c(C)c(Cl)c(O)c(Cl)c6OC)C(C)O5)C(C)O4)OC3C(C)O2)C1O (stereo not drawn) [hydroxylaminoeverninomicin D benzyl nitrone N-methylglucamine salt]
Peak serum levels in rats ([2]; 25 mg/kg): 10 to 12 µg/mL and 9 µg/mL
Peak serum levels in dogs [5]: 1 to 2 µg/mL

COCC1OC(OC2OCC3OC4(OCC(O)(C(C)OC)C5OCOC54)OC3C2OC)C(OC)C(O)C1OC1OC(C)C(OC)C(OC2CC3(C)OC4(CC(O)C(OC5CC(OC6CC(C)([N+]([O-])=Cc7ccccc7)C(OC)C(C)O6)C(OC(=O)c6c(C)c(Cl)c(O)c(Cl)c6OC)C(C)O5)C(C)O4)OC3C(C)O2)C1O (stereo not drawn) [hydroxylaminoeverninomicin D benzyl nitrone]
Bioassay [8]: 1309.0 µg/mL

COCC1OC(OC2OCC3OC4(OCC(O)(C(C)OC)C5OCOC54)OC3C2OC)C(OC)C(O)C1OC1OC(C)C(OC)C(OC2CC3(C)OC4(CC(O)C(OC5CC(OC6CC(C)([N+]([O-])=Cc7ccco7)C(OC)C(C)O6)C(OC(=O)c6c(C)c(Cl)c(O)c(Cl)c6OC)C(C)O5)C(C)O4)OC3C(C)O2)C1O (stereo not drawn) [hydroxylaminoeverninomicin D furfuryl nitrone]
Bioassay [8]: 1063.4 µg/mL

CCCCCCC=[N+]([O-])C1(C)CC(OC2CC(OC3C(O)CC4(OC3C)OC3C(C)OC(OC5C(O)C(OC6C(COC)OC(OC7OCC8OC9(OCC(O)(C(C)OC)C%10OCOC%109)OC8C7OC)C(OC)C6O)OC(C)C5OC)CC3(C)O4)OC(C)C2OC(=O)c2c(C)c(Cl)c(O)c(Cl)c2OC)OC(C)C1OC (stereo not drawn) [hydroxylaminoeverninomicin D heptyl nitrone]
Bioassay [8]: 892 µg/mL
